Usually IC50 stands for the concentration that inhibits the measured activity by half. What is called Kd is the concentration at which binding is half-saturated.

This is an account of results in US20220315554A1, “COMPOUNDS COMPRISING A […] LIGAND AND USE THEREOF” (priority 2019, published 2022).

Assay [1] concerns the target T1, Human recombinant FAP (Homo sapiens, UniProt Q12884).
T1 sequence (Q12884 1-760): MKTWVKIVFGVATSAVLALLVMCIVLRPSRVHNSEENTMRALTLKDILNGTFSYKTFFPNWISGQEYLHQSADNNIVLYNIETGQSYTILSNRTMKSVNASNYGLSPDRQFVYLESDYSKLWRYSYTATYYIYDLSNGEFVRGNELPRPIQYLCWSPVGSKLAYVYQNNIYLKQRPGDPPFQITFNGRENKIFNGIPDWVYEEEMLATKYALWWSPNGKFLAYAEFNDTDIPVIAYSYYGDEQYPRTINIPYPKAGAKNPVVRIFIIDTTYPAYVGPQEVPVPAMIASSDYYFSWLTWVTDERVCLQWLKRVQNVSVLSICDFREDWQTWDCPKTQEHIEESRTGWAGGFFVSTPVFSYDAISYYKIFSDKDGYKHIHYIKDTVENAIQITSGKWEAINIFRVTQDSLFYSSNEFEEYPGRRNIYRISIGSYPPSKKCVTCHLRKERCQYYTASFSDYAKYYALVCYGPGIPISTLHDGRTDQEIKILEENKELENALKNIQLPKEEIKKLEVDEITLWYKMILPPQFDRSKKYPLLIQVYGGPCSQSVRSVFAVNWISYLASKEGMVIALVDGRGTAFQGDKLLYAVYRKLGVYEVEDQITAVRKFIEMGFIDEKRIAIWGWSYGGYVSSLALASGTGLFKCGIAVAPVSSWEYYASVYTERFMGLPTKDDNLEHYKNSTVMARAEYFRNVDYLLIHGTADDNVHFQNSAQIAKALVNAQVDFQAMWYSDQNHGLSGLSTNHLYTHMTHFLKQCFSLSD
Kind of assay: FRET-based FAP protease activity assay. Also noted: purchased R&D systems 3715-SE. As to conditions: pIC50 Category (Activity), FRET substrate, 37° C. The class given is biochemical.

For assay [2], the target named is T1, Human recombinant FAP. Kind of assay: Surface plasmon resonance (Biacore) assay. It counts as binding. For orientation: SPR reads the build-up and loss of mass on a sensor chip optically.
Assay [3] has as its target T2, FAP-expressing human WI-38 fibroblasts (Homo sapiens, UniProt Q12884).
T2 construct: FAP-expressing human WI-38 fibroblasts (ECACC) were cultured in EMEM; host or cells: WI-38 human fibroblasts
T2 sequence (Q12884 1-760): T1 sequence (Q12884 1-760)
Kind of assay: Competitive FACS binding assay. Conditions: pIC50 Category (FACS), competition with 3 nM Cy5-labeled compound, 4° C., 1 hour. As for the experimental part:
Cells were analyzed in an Attune NxT flow cytometer. […]

Numbered stars: 1 amine (or outer) side, 2 acyl side, 3 side chain; on linkers, the order of the positions; unused ones are H or OH. Bridge positions count the residues as written; N and C are the ends. Square brackets hold non-standard residues; d marks the D form. Peptide text beside a SMILES is read from it. * marks the point of attachment. TBMB(SCH2CH2NH-DOTA) = O=C(O)CN1CCN(CC(=O)O)CCN(CC(=O)NCCSCc2cc(C[*:1])cc(C[*:2])c2)CCN(CC(=O)O)CC1; X3 = NC(=O)[C@H](CCCCNC(=O)CN1CCN(CC(=O)O)CCN(CC(=O)O)CCN(CC(=O)O)CC1)NC(=O)CCC(=O)NCCCOCCOCCOCCCN*; mXylylene = c1cc(C[*:1])cc(C[*:2])c1; Hexanoyl = CCCCCC(=O)*; GABA = NCCCC(=O)O Where only a bound is given, the exact number is not on record here.

Turning to `CCCCCC(=O)N[C@H]1CSCc2cccc(c2)CSC[C@@H](C(=O)N[C@@H](CC(=O)O)C(N)=O)NC(=O)[C@H](Cc2ccccc2)NC(=O)[C@H](CCC(=O)O)NC(=O)[C@H]([C@@H](C)O)NC(=O)[C@@H]2CCCN2C(=O)[C@@H]2CCCN2C1=O` [3BP-3288, Hex-[Cys(3MeBn)-Pro-Pro-Thr-Glu-Phe-Cys]-Asp-NH2] (Hexanoyl-CPPTEFCD-NH2; linker 1-7 via mXylylene), the IC50 in assay [1] (recombinant human FAP) and in assay [3] (WI-38 fibroblasts) was less than 10 nM throughout. Besides, the Kd in assay [2] was less than 10 nM.

`CCCCCC(=O)N[C@H]1CSCc2cccc(c2)CSC[C@@H](C(=O)N[C@@H](CC(=O)O)C(=O)NCCCC(=O)N[C@@H](CCCNC(=N)N)C(N)=O)NC(=O)[C@H](Cc2ccccc2)NC(=O)[C@H](CCC(=O)O)NC(=O)[C@H]([C@@H](C)O)NC(=O)[C@@H]2CCCN2C(=O)[C@@H]2CCCN2C1=O` [3BP-3300, Hex-[Cys(3MeBn)-Pro-Pro-Thr-Glu-Phe-Cys]-Asp-Gab-Arg-NH2] (Hexanoyl-CPPTEFCD[GABA]R-NH2; linker 1-7 via mXylylene): the IC50 in assay [1] (recombinant human FAP) and in assay [3] (WI-38 fibroblasts) was less than 10 nM throughout. For the same molecule, the Kd in assay [2] is less than 10 nM.

Take `CCCCCC(=O)N[C@H]1CSCc2cc(CSCCNC(=O)CN3CCN4CCN5CCN(CC3)CC(=O)[O][Lu]([O]C(=O)C4)[O]C(=O)C5)cc(c2)CSC[C@@H](C(=O)N[C@@H](CC(=O)O)C(=O)NCCCC(=O)N[C@@H](CCCNC(=N)N)C(=O)NCCCOCCOCCOCCCNC(=O)CCC(=O)NCCCOCCOCCOCCCNC(=O)CCC(=O)NCCCOCCOCCOCCCNC(=O)CCC(=O)N[C@@H](CCCCNC(=O)c2ccc(-c3c4ccc(=N)c(S(=O)(=O)O)c-4oc4c(S(=O)(=O)O)c(N)ccc34)c(C(=O)O)c2)C(N)=O)NC[C@H](Cc2ccccc2)NC(=O)[C@H](CCC(N)=O)NC(=O)C([C@@H](C)O)NC(=O)[C@@H]2CCCN2C(=O)[C@@H]2CCCC2C1=O` (stereo partly drawn) [3BP-4373, Hex-[Cys(tMeBn(LuDOTA-AET))-Pro-Pro-Thr-Gln-Phe-Cys]-Asp-Gab-Arg-Ttds-Ttds-Ttds-Lys(AF488)-NH2]: the results for the IC50 in assay [1] and in assay [3] were less than 10 nM and 10 to 79.4 nM, respectively.

`CCCCCC(=O)N[C@H]1CSCc2cc(CSCCNC(=O)CCC(=O)NCCCOCCOCCOCCCNC(=O)c3ccc(NN)nc3)cc(c2)CSC[C@@H](C(=O)O)NC(=O)[C@H](Cc2ccccc2)NC(=O)[C@H](CCC(N)=O)NC(=O)[C@H]([C@@H](C)O)NC(=O)[C@@H]2CCCN2C(=O)[C@@H]2CCCN2C1=O` [3BP-4376, Hex-[Cys-(tMeBn(H-HYNIC-Ttds-AET))-Pro-Pro-Thr-Gln-Phe-Cys]-OH]: the IC50 in assay [1] and in assay [3] was less than 10 nM throughout.

As to `CCCCCC(=O)N[C@H]1CSCc2cc(CSCCNC(=O)CN3CCN(CC(=O)O)CCN(CC(=O)O)Cc4cccc(n4)C3)cc(c2)CSC[C@@H](C(=O)O)NC(=O)[C@H](Cc2ccccc2)NC(=O)[C@H](CCC(N)=O)NC(=O)[C@H]([C@@H](C)O)NC(=O)[C@@H]2CCCN2C(=O)[C@@H]2CCCN2C1=O` [3BP-4379, Hex-[Cys-(tMeBn(PCTA-AET))-Pro-Pro-Thr-Gln-Phe-Cys]-OH], the IC50 in assay [1] and in assay [3] was less than 10 nM throughout.

Turning to `CCCCCC(=O)N[C@H]1CSCc2cc(CSCCNC(=O)CCP(=O)(O)CN3CCN(CP(=O)(O)CO)CCN(CP(=O)(O)CO)CC3)cc(c2)CSC[C@@H](C(=O)O)NC(=O)[C@H](Cc2ccccc2)NC(=O)[C@H](CCC(N)=O)NC(=O)[C@H]([C@@H](C)O)NC(=O)[C@@H]2CCCN2C(=O)[C@@H]2CCCN2C1=O` [3BP-4380, Hex-[Cys-(tMeBn(NOPO-AET))-Pro-Pro-Thr-Gln-Phe-Cys]-OH], the IC50 in assay [1] and in assay [3] was less than 10 nM in each case.

`CCCCCC(=O)N[C@H]1CSCc2cc(CSCCNC(=O)CCc3ccc(O)c(CN(CCN(CC(=O)O)Cc4cc(CCC(=O)O)ccc4O)CC(=O)O)c3)cc(c2)CSC[C@@H](C(=O)O)NC(=O)[C@H](Cc2ccccc2)NC(=O)[C@H](CCC(N)=O)NC(=O)[C@H]([C@@H](C)O)NC(=O)[C@@H]2CCCN2C(=O)[C@@H]2CCCN2C1=O` [3BP-4381, Hex-[Cys-(tMeBn(HBED-AET))-Pro-Pro-Thr-Gln-Phe-Cys]-OH]: the IC50 in assay [1] and in assay [3] was 10 to 79.4 nM throughout.

In the case of `CCCCCC(=O)N[C@H]1CSCc2cc(CSCCNC(=O)CCCCC3(N(C)CC(=O)O)CN(CC(=O)O)CCN(CC(=O)O)C3)cc(c2)CSC[C@@H](C(=O)O)NC(=O)[C@H](Cc2ccccc2)NC(=O)[C@H](CCC(N)=O)NC(=O)[C@H]([C@@H](C)O)NC(=O)[C@@H]2CCCN2C(=O)[C@@H]2CCCN2C1=O` [3BP-4382, Hex-[Cys-(tMeBn(DATA-AET))-Pro-Pro-Thr-Gln-Phe-Cys]-OH], the half-inhibitory concentration (IC50) in assay [1] and in assay [3] was 10 to 79.4 nM in each case.

For the molecule `CCCCCC(=O)N[C@H]1CSCc2cc(CSCCNC(=O)CCC(=O)NCCCOCCOCCOCCCNC(=O)CCP(=O)(O)CN3CCN(CP(=O)(O)CO)CCN(CP(=O)(O)CO)CC3)cc(c2)CSC[C@@H](C(=O)O)NC(=O)[C@H](Cc2ccccc2)NC(=O)[C@H](CCC(N)=O)NC(=O)[C@H]([C@@H](C)O)NC(=O)[C@@H]2CCCN2C(=O)[C@@H]2CCCN2C1=O` [3BP-4385, Hex-[Cys(tMeBn(NOPO-Ttds-AET))-Pro-Pro-Thr-Gln-Phe-Cys]-OH], the IC50 in assay [1] and in assay [3] was 10 to 79.4 nM each time.

With `CCCC(NC(=O)CCC(=O)NCCCOCCOCCOCCCNC(=O)CN1CCN(CC(=O)O)CCN(CC(=O)O)CCN(CC(=O)O)CC1)C(=O)N[C@H]1CSCc2cc(CSCCNC(=O)CN3CCN(CC(=O)O)CCN(CC(=O)O)CCN(CC(=O)O)CC3)cc(c2)CSC[C@@H](C(=O)O)NC(=O)[C@H](Cc2ccccc2)NC(=O)[C@H](CCC(N)=O)NC(=O)[C@H]([C@@H](C)O)NC(=O)[C@@H]2CCCN2C(=O)[C@@H]2CCCN2C1=O` (stereo partly drawn) [3BP-4386, DOTA-Ttds-Nle-[Cys(tMeBn(DOTA-AET))-Pro-Pro-Thr-Gln-Phe-Cys]-OH], the half-maximal inhibitory concentration (IC50) in assay [1] and in assay [3] was 10 to 79.4 nM throughout.

Take `CCCCCC(=O)N[C@H]1CSCc2cc(CSCCNC(=O)CN3CCN(CC(=O)O)CCN(CC(=O)O)CCN(CC(=O)O)CC3)cc(c2)CSC[C@@H](C(=O)N[C@@H](CC(=O)O)C(=O)NCCCOCCOCCOCCCNC(=O)CCC(=O)N[C@@H](CCCCNC(=O)CN2CCN(CC(=O)O)CCN(CC(=O)O)CCN(CC(=O)O)CC2)C(N)=O)NC(=O)[C@H](Cc2ccccc2)NC(=O)[C@H](CCC(N)=O)NC(=O)[C@H]([C@@H](C)O)NC(=O)[C@@H]2CCCN2C(=O)[C@@H]2CCCN2C1=O` [3BP-4391, Hex-[Cys(tMeBn(DOTA-AET))-Pro-Pro-Thr-Gln-Phe-Cys]-Asp-Ttds-Lys(DOTA)-NH2] (Hexanoyl-CPPTQFCD-X3; linker 1-7 via TBMB(SCH2CH2NH-DOTA)): the IC50 in assay [1] and in assay [3] was less than 10 nM each time.

As for `CCCC(NC(=O)CCC(=O)NCCCOCCOCCOCCCNC(=O)CN1CCN(CC(=O)O)CCN(CC(=O)O)CCN(CC(=O)O)CC1)C(=O)N[C@H]1CSCc2cc(CSCCNC(=O)CN3CCN(CC(=O)O)CCN(CC(=O)O)CCN(CC(=O)O)CC3)cc(c2)CSC[C@@H](C(=O)N[C@@H](CC(=O)O)C(=O)NCCCOCCOCCOCCCNC(=O)CCC(=O)N[C@@H](CCCCNC(=O)CN2CCN(CC(=O)O)CCN(CC(=O)O)CCN(CC(=O)O)CC2)C(N)=O)NC(=O)[C@H](Cc2ccccc2)NC(=O)[C@H](CCC(N)=O)NC(=O)[C@H]([C@@H](C)O)NC(=O)[C@@H]2CCCN2C(=O)[C@@H]2CCCN2C1=O` (stereo partly drawn) [3BP-4392, DOTA-Ttds-Nle-[Cys(tMeBn(DOTA-AET))-Pro-Pro-Thr-Gln-Phe-Cys]-Asp-Ttds-Lys(DOTA)-NH2], the IC50 in assay [1] and in assay [3] was 10 to 79.4 nM throughout.

For `CCCC(NC(=O)CCC(=O)NCCCOCCOCCOCCCNC(=O)CN1CCN(CC(=O)O)CCN(CC(=O)O)CCN(CC(=O)O)CC1)C(=O)N[C@H]1CSCc2cccc(c2)CSC[C@@H](C(=O)N[C@@H](CC(=O)O)C(=O)NCCCOCCOCCOCCCNC(=O)CCC(=O)N[C@@H](CCCCNC(=O)CN2CCN(CC(=O)O)CCN(CC(=O)O)CCN(CC(=O)O)CC2)C(N)=O)NC(=O)[C@H](Cc2ccccc2)NC(=O)[C@H](CCC(N)=O)NC(=O)[C@H]([C@@H](C)O)NC(=O)[C@@H]2CCCN2C(=O)[C@@H]2CCCN2C1=O` (stereo partly drawn) [3BP-4393, DOTA-Ttds-Nle-[Cys(3MeBn)-Pro-Pro-Thr-Gln-Phe-Cys]-Asp-Ttds-Lys(DOTA)-NH2], the IC50 in assay [1] and in assay [3] was less than 10 nM throughout.
